Measurements as given in ChEMBL document CHEMBL1139706, “Novel thienopyrrole glycogen phosphorylase inhibitors: synthesis, in vitro SAR and crystallographic studies” (Bioorg Med Chem Lett, 2006).

Experiments:
[1] = target: T1, Glycogen phosphorylase, liver form (Homo sapiens, UniProt P06737); assay: Inhibition of recombinant human liver GPa by multienzyme coupled assay
T1 sequence (P06737 whole entry): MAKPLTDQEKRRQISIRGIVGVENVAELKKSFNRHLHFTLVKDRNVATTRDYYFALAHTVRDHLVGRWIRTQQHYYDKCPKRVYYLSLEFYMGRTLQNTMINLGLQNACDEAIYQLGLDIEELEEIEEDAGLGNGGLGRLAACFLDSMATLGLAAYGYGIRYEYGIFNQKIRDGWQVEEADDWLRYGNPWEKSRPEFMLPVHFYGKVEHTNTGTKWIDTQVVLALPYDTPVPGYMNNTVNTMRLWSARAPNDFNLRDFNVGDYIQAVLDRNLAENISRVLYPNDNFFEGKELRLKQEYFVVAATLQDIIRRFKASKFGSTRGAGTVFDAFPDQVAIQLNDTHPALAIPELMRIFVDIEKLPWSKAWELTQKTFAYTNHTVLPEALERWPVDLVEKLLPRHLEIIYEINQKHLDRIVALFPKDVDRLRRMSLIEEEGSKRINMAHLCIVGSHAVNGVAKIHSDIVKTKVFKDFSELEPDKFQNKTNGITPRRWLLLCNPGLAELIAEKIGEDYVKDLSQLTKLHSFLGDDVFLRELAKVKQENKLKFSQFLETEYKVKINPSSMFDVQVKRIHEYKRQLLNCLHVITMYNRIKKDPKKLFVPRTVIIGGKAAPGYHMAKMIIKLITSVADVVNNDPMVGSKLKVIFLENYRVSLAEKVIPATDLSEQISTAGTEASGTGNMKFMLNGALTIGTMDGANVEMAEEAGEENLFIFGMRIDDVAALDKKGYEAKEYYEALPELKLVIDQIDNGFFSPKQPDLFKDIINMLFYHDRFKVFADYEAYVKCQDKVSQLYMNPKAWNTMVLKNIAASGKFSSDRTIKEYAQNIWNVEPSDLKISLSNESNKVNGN

Hepatocyte = assay: Inhibition of glucose output in glucagon challenged rat hepatocytes; format: functional, cell-based
[2] = target: T2, Glycogen phosphorylase, liver form (Homo sapiens) (UniProt P06737); assay: Inhibition of recombinant human liver GPa by multienzyme coupled assay at 10 uM
T2 sequence (whole entry): T1 sequence (P06737 whole entry)

[3] = target: T2, Glycogen phosphorylase, liver form (Homo sapiens); assay: Inhibition of recombinant human liver GPa by multienzyme coupled assay at 100 uM

O=C(N[C@@H]1Cc2ccc(Cl)cc2[C@H]1O)c1cc2sc(Cl)c(Cl)c2[nH]1
IC50 [1]: 90 nM

CN(C)C(=O)[C@H](Cc1ccccc1)NC(=O)c1cc2cc(Cl)ccc2[nH]1
IC50 (Hepatocyte): 2600 nM | IC50 [1]: 51 nM

CNC(=O)[C@H](Cc1ccccc1)NC(=O)c1cc2scc(Cl)c2[nH]1
IC50 [1]: 390 nM

CN(C)C(=O)[C@H](Cc1ccccc1)N(C)C(=O)c1cc2sc(Br)c(Br)c2[nH]1
IC50 [1]: > 10000 nM

CN(C)C(=O)[C@H](Cc1ccccc1)NC(=O)c1cc2ccsc2[nH]1
IC50 [1]: 2310 nM

CN(C)C(=O)[C@H](Cc1ccccc1)NC(=O)c1cc2sc(Br)c(Br)c2[nH]1
IC50 [1]: 23 nM

CN(C)C(=O)[C@H](Cc1ccccc1)NC(=O)c1cc2c(Br)c(Br)sc2[nH]1
inhibition [2]: 20%

CN(C)C(=O)[C@H](Cc1ccccc1)NC(=O)c1cc2sccc2[nH]1
inhibition [3]: 35%

CN(C)C(=O)[C@H](Cc1ccccc1)NC(=O)c1cc2sc(Cl)c(Cl)c2[nH]1
IC50 (Hepatocyte): 1000 nM | IC50 [1]: 5 nM

O=C(N[C@@H]1Cc2ccccc2[C@H]1O)c1cc2cc(Cl)sc2[nH]1
IC50 (Hepatocyte): 3600 nM

O=C(N[C@@H]1Cc2ccccc2[C@H]1O)c1cc2sc(Cl)c(Cl)c2[nH]1
IC50 (Hepatocyte): 1500 nM | IC50 [1]: 9 nM

O=C(N[C@@H]1Cc2ccc(F)cc2[C@H]1O)c1cc2sc(Cl)c(Cl)c2[nH]1
IC50 (Hepatocyte): 1300 nM | IC50 [1]: 49 nM

CNC(=O)[C@H](Cc1ccccc1)NC(=O)c1cc2sc(Cl)cc2[nH]1
IC50 [1]: 577 nM

O=C(NC1Cc2ccccc2C1)c1cc2sc(Cl)c(Cl)c2[nH]1
IC50 [1]: 197 nM

CN(C)C(=O)[C@H](Cc1ccccc1)NC(=O)c1cc2cc(Cl)sc2[nH]1
IC50 (Hepatocyte): 1400 nM | IC50 [1]: 17 nM

O=C(NC1Cc2ccccc2NC1=O)c1cc2cc(Cl)ccc2[nH]1 (configuration not stated)
IC50 (Hepatocyte): 7000 nM | IC50 [1]: 86 nM

CN(C)C(=O)[C@H](Cc1ccccc1)NC(=O)c1cc2cc(Br)sc2[nH]1
IC50 (Hepatocyte): 1600 nM | IC50 [1]: 31 nM

CN(C)C(=O)[C@H](Cc1ccccc1)NC(=O)c1cc2sc(Br)c(Br)c2n1C
IC50 (Hepatocyte): 1100 nM | IC50 [1]: > 10000 nM

O=C(NC1Cc2ccccc2C1)c1cc2cc(Cl)sc2[nH]1
IC50 [1]: 806 nM
